Measurements published in ChEMBL document CHEMBL1201862, “PubChem BioAssay data set” (2004).
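The compound was tested at five concentrations on cells cultured in 96-well plates, with a 48-hour exposure period. The concentration for 50% growth inhibition is given as GI50.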 The source made the active and inactive calls. Rule as the data show it: active = GI50 up to about 1.1 µM and inactive = higher.

Assays:
Assay in all cases: DTP human tumour cell line panel, 48 h
NCI-H522 = system: NCI-H522
NCI-H226 = system: NCI-H226
SF-295 = system: SF-295
ACHN = system: ACHN
MCF7 = system: MCF7
HOP-62 = system: HOP-62
MDA-MB-231 = system: MDA-MB-231
HL-60 = system: HL-60
UACC-62 = system: UACC-62
MDA-MB-435 = system: MDA-MB-435
SF-539 = system: SF-539
BT-549 = system: BT-549
SNB-75 = system: SNB-75
SNB-19 = system: SNB-19
MDA-N = system: MDA-N
RXF 393 = system: RXF 393
LOX IMVI = system: LOX IMVI
OVCAR-4 = system: OVCAR-4
EKVX = system: EKVX
HCC 2998 = system: HCC 2998

SMILES	GI50 (NCI-H522)	GI50 (NCI-H226)	GI50 (SF-295)	GI50 (ACHN)	GI50 (MCF7)	GI50 (HOP-62)	GI50 (MDA-MB-231)	GI50 (HL-60)	GI50 (UACC-62)	GI50 (MDA-MB-435)	GI50 (SF-539)	GI50 (BT-549)	GI50 (SNB-75)	GI50 (SNB-19)	GI50 (MDA-N)	GI50 (RXF 393)	GI50 (LOX IMVI)	GI50 (OVCAR-4)	GI50 (EKVX)	GI50 (HCC 2998)
O=C(O)c1cc(-c2ccc3cc(O)c(O)cc3c2)ccc1O	> 12.5 µM (inactive)	> 12.5 µM (inactive)	> 12.5 µM (inactive)	> 12.5 µM (inactive)	> 12.5 µM (inactive)	> 12.5 µM (inactive)	> 12.5 µM (inactive)	> 12.5 µM (inactive)	> 12.5 µM (inactive)	5.73 µM (inactive)	> 12.5 µM (inactive)	> 12.5 µM (inactive)	4.94 µM (inactive)	> 12.5 µM (inactive)	3.88 µM (inactive)	–	–	–	–	–
CCCCCc1nnc(NS(=O)(=O)c2ccc(NC(=O)OCC(C)C)cc2)s1	24.5 µM (inactive)	–	37.5 µM (inactive)	34.7 µM (inactive)	37.8 µM (inactive)	44.5 µM (inactive)	36.2 µM (inactive)	31.2 µM (inactive)	29.5 µM (inactive)	33.7 µM (inactive)	26.8 µM (inactive)	32.1 µM (inactive)	–	69.3 µM (inactive)	32.3 µM (inactive)	74.8 µM (inactive)	37.2 µM (inactive)	26.1 µM (inactive)	33.3 µM (inactive)	–
O=S(=O)(O)c1cc(/N=N/c2cccc3ccccc23)c(O)c2ncccc12	–	16 µM (inactive)	> 100 µM (inactive)	44 µM (inactive)	23.7 µM (inactive)	> 100 µM (inactive)	> 100 µM (inactive)	37.8 µM (inactive)	36.2 µM (inactive)	> 100 µM (inactive)	56.1 µM (inactive)	> 100 µM (inactive)	60.3 µM (inactive)	> 100 µM (inactive)	58.3 µM (inactive)	62.8 µM (inactive)	60.8 µM (inactive)	46 µM (inactive)	30.5 µM (inactive)	–
COC1CC2C=CC3C4OC2(/C(C)=C/C(C)C(C(C)O)OC1=O)C3C(O)C(C)C4OC(=O)c1ccc[nH]1 (centres undefined)	> 100 µM (inactive)	–	30.9 µM (inactive)	> 100 µM (inactive)	94.4 µM (inactive)	> 100 µM (inactive)	> 100 µM (inactive)	16.6 µM (inactive)	> 100 µM (inactive)	58.1 µM (inactive)	59.6 µM (inactive)	81.5 µM (inactive)	–	> 100 µM (inactive)	45.5 µM (inactive)	–	64 µM (inactive)	74 µM (inactive)	63.4 µM (inactive)	74.6 µM (inactive)
O=C(/C=C/c1cccc(Oc2ccccc2)c1)NCc1ccc(C(=O)NCc2ccccc2)cc1	98.9 µM (inactive)	27.5 µM (inactive)	21.8 µM (inactive)	71 µM (inactive)	> 100 µM (inactive)	2.96 µM (inactive)	52.2 µM (inactive)	–	79.8 µM (inactive)	> 100 µM (inactive)	0.865 µM (active)	60.1 µM (inactive)	12.1 µM (inactive)	32.4 µM (inactive)	> 100 µM (inactive)	12.2 µM (inactive)	> 100 µM (inactive)	31 µM (inactive)	> 100 µM (inactive)	> 100 µM (inactive)
O=C(Nc1ccc2ccccc2c1)Nn1cnnc1	> 100 µM (inactive)	35.3 µM (inactive)	> 100 µM (inactive)	> 100 µM (inactive)	> 100 µM (inactive)	> 100 µM (inactive)	> 100 µM (inactive)	> 100 µM (inactive)	> 100 µM (inactive)	> 100 µM (inactive)	> 100 µM (inactive)	> 100 µM (inactive)	> 100 µM (inactive)	> 100 µM (inactive)	> 100 µM (inactive)	–	> 100 µM (inactive)	> 100 µM (inactive)	> 100 µM (inactive)	> 100 µM (inactive)
C=CC(=O)Nc1ccc(NC(=O)C=C)c2c1C(=O)c1ccccc1C2=O	16.6 µM (inactive)	–	10.8 µM (inactive)	61.7 µM (inactive)	21 µM (inactive)	> 100 µM (inactive)	97.7 µM (inactive)	3.86 µM (inactive)	21.4 µM (inactive)	> 10 µM (inactive)	24.8 µM (inactive)	29.9 µM (inactive)	–	> 100 µM (inactive)	36.1 µM (inactive)	–	5.07 µM (inactive)	–	> 100 µM (inactive)	> 100 µM (inactive)
C(=N\c1nc2cc3sc(/N=C/c4ccccc4)nc3cc2s1)/c1ccccc1	17.1 µM (inactive)	20.7 µM (inactive)	> 100 µM (inactive)	55.8 µM (inactive)	20.8 µM (inactive)	> 68.2 µM (inactive)	> 95.3 µM (inactive)	–	72.9 µM (inactive)	> 100 µM (inactive)	32.5 µM (inactive)	54.2 µM (inactive)	> 100 µM (inactive)	> 100 µM (inactive)	> 100 µM (inactive)	> 100 µM (inactive)	38.9 µM (inactive)	> 89.5 µM (inactive)	37.7 µM (inactive)	29.9 µM (inactive)
CC(=O)OCC(OC(C)=O)C(OC(C)=O)C(OC(C)=O)C(C=NN(C(C)=O)S(=O)(=O)c1ccc(/C=C2\NC(=O)NC2=O)cc1)OC(C)=O (centres undefined)	> 100 µM (inactive)	> 100 µM (inactive)	> 100 µM (inactive)	> 100 µM (inactive)	> 100 µM (inactive)	> 100 µM (inactive)	> 100 µM (inactive)	–	> 100 µM (inactive)	> 100 µM (inactive)	–	> 100 µM (inactive)	> 100 µM (inactive)	> 100 µM (inactive)	> 100 µM (inactive)	> 100 µM (inactive)	> 100 µM (inactive)	> 100 µM (inactive)	> 100 µM (inactive)	> 100 µM (inactive)
N#Cc1c2c([nH]c(=O)c1C#N)CCCC2	–	> 100 µM (inactive)	> 100 µM (inactive)	> 100 µM (inactive)	> 100 µM (inactive)	–	> 100 µM (inactive)	> 100 µM (inactive)	> 100 µM (inactive)	> 100 µM (inactive)	> 100 µM (inactive)	> 100 µM (inactive)	82.8 µM (inactive)	> 100 µM (inactive)	> 100 µM (inactive)	> 100 µM (inactive)	> 100 µM (inactive)	–	> 100 µM (inactive)	> 100 µM (inactive)
CCOC(=O)c1cc(Br)c(-c2cc(C)co2)[nH]1	–	> 100 µM (inactive)	> 100 µM (inactive)	–	> 100 µM (inactive)	> 100 µM (inactive)	> 100 µM (inactive)	55.7 µM (inactive)	> 100 µM (inactive)	32.9 µM (inactive)	> 100 µM (inactive)	> 100 µM (inactive)	> 100 µM (inactive)	> 100 µM (inactive)	36.4 µM (inactive)	> 100 µM (inactive)	> 100 µM (inactive)	> 100 µM (inactive)	67 µM (inactive)	> 100 µM (inactive)
CC(C)=C[C@H]1CCC2(OCCO2)[C@]1(C)COCc1ccccc1	29 µM (inactive)	14.1 µM (inactive)	40 µM (inactive)	34.4 µM (inactive)	41.3 µM (inactive)	–	19.7 µM (inactive)	–	–	26.4 µM (inactive)	21.7 µM (inactive)	42.7 µM (inactive)	45.4 µM (inactive)	37.7 µM (inactive)	33.7 µM (inactive)	5.98 µM (inactive)	17.2 µM (inactive)	33.8 µM (inactive)	33 µM (inactive)	16.4 µM (inactive)
CN(CCSCCN(C)C(=O)OC(C)(C)C)C(=O)OC(C)(C)C	> 100 µM (inactive)	–	> 100 µM (inactive)	> 100 µM (inactive)	> 100 µM (inactive)	> 100 µM (inactive)	> 100 µM (inactive)	–	> 100 µM (inactive)	> 100 µM (inactive)	> 100 µM (inactive)	> 100 µM (inactive)	61.5 µM (inactive)	> 100 µM (inactive)	> 100 µM (inactive)	–	> 100 µM (inactive)	> 100 µM (inactive)	> 100 µM (inactive)	> 100 µM (inactive)
O=C1/C(=C/Cc2ccco2)N=C(c2ccccc2)N1c1nc2ccc(Sc3ccccc3)cc2[nH]1	–	–	29.7 µM (inactive)	19.4 µM (inactive)	14 µM (inactive)	30.1 µM (inactive)	20.5 µM (inactive)	21.7 µM (inactive)	20.7 µM (inactive)	5.52 µM (inactive)	28.5 µM (inactive)	20.3 µM (inactive)	19.5 µM (inactive)	33.2 µM (inactive)	6.12 µM (inactive)	15.1 µM (inactive)	18.8 µM (inactive)	24.2 µM (inactive)	25.6 µM (inactive)	16.9 µM (inactive)
[N-]=[N+]=Nc1cc(=O)[nH]c2ccccc12	> 100 µM (inactive)	45.9 µM (inactive)	> 100 µM (inactive)	> 100 µM (inactive)	52 µM (inactive)	> 100 µM (inactive)	> 100 µM (inactive)	–	44.2 µM (inactive)	> 100 µM (inactive)	> 100 µM (inactive)	83.2 µM (inactive)	32.3 µM (inactive)	> 100 µM (inactive)	> 100 µM (inactive)	> 100 µM (inactive)	–	> 100 µM (inactive)	4.98 µM (inactive)	–
Cc1cccc2oc3c(CC(=O)O)cccc3c(=O)c12	> 100 µM (inactive)	> 100 µM (inactive)	> 100 µM (inactive)	> 100 µM (inactive)	> 100 µM (inactive)	> 100 µM (inactive)	> 100 µM (inactive)	> 100 µM (inactive)	–	> 100 µM (inactive)	> 100 µM (inactive)	> 100 µM (inactive)	–	> 100 µM (inactive)	> 100 µM (inactive)	–	> 100 µM (inactive)	> 100 µM (inactive)	> 100 µM (inactive)	20.5 µM (inactive)
